Results as given in patent US20250026769A1, “PAPD5 INHIBITORS AND METHODS OF USE THEREOF” (The Children's Medical Center Corporation, priority 2021, published 2025).
Where two headings read alike, the source gives them in different places.

Columns and labels:
[1] = test system: TERC 3′ end processing in DC patient iPSCs; assay: TERC 3′ end processing by RACE in DC patient / PARN-mutant iPSCs; assay type: cell-based, human; settings: for minimal effective concentration: Homo sapiens, iPSC, patient iPSCs, concentration class at which activity is seen, read-out: iPSC-based RACE activity
Procedure, shortened: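 Activity binned by concentration giving effect in DC patient iPSCs: "+" at 1 μM, "++" above 1 nM and below 1 μM, "+++" below 1 nM; ND, not determined.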

[2] = test system: hepatitis B surface antigen (HBSAg) from HepG2.2.15 cells, a hepatitis B virus-expressing cell line; assay: HBsAg ELISA in supernatant of HepG2.2.15 cells; assay type: cell-based; settings: HepG2.2.15, 96 h
Description: HepG2.2.15 cells, a hepatitis B virus-expressing cell line (Sells, M. A. et al., PNAS, 1987), were plated at 50,000 cells/well in DMEM/F12 media (Gibco) with 10% fetal bovine serum (Omega Scientific) in a 24-well or 96-well plate (Corning), in 2-3 replicates for each test compound/concentration plus controls, and incubated in a humidified 5% CO2 chamber at 37° C. The next day, media was aspirated, cells were washed once with phosphate buffered saline, pH7.4 (Gibco), and 1 mL DMEM/12 media was replaced. Test compounds were added in 3-fold dilutions from up to 100 μM down to 333 pM, with vehicle (dimethylsulfoxide (Sigma)) as a control. After four days of culture in a humidified 5% CO2 chamber at 37° C., plates were spun down in a centrifuge at 300 g for 10 minutes at room temperature. Supernatant from each well was collected and either frozen at −20° C. or used directly for quantitation of hepatitis B surface antigen (HBSAg) in an enzyme-linked immunosorbent assay (ELISA). The supernatant was tested using the HBSAg ELISA kit (Abnova Cat. No KA0286) per the manufacturer's instructions. Results of replicates were averaged and nonlinear curve fitting was used to determine the half maximal inhibitory concentration (IC50) for each test compound.

[3] = biological target: T1, rPAPD5 (Homo sapiens, UniProt Q8NDF8); assay: differential scanning fluorimetry (DSF) binding and stabilization of rPAPD5; settings: for ΔTm at 1 µM: 1 μM test compound (Table 2a), read-out: ΔTm at 1 μM; for ΔTm at 100 µM: 100 μM test compound, read-out: ΔTm at 100 μM
T1 construct: made in house
Procedure, shortened: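 Differential scanning fluorimetry was used to measure how test compounds bind and thermally stabilize rPAPD5. The reaction contained SYPRO orange dye diluted 1:5000 in […] of buffer with […], 25 mM Tris-HCl, 5 mM MgCl2 and 50 mM KCl. ΔTm was calculated relative to a DMSO control.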

[4] = test system: telomere length in DC patient iPSCs; assay: telomere length / telomere elongation in DC patient iPSCs; assay type: cell-based, human; settings: for minimal effective concentration: Homo sapiens, iPSC, patient iPSCs, concentration class at which activity is seen, read-out: iPSC-based Telomere length; for concentration at which telomere elongation was observed: DC patient iPSCs, after 3-4 weeks of cell culture
Description: Compound 266A had activity ˜2-logs higher in the in vitro RNA oligoadenylation assay compared to the parental compound cmpd. 1, approximating the activity of RG7834 (FIG. 7). […] 1. Compounds 295A and 296A had activity 2-3 logs higher in DC patient iPSCs, showing TERC maturation at 1 nM, similar to RG7834 (FIG. 6). […] Referring to Table 1D, “+” refers to activity at 1 μM, “++” refers to activity above 1 nM and below 1 μM, and “+++” refers to activity at <1 nM, “ND” refers to not determined.

[5] = test system: TERC 3′ end processing in primary CD34+ human hematopoietic stem and progenitor cells (HSPCs); assay: TERC 3′ end processing (RACE) in CRISPR/Cas9-engineered PARN-deficient primary CD34+ HSPCs; assay type: cell-based; settings: for TERC 3′ end processing by RACE at 100 nM: day 5 (FIG. 40B); for TERC 3′ end processing by RACE at 1 μM: day 5 (FIG. 40A)
Excerpt: Example 167—Restoration of TERC 3′ end processing in primary CD34+ human hematopoietic stem and progenitor cells (HSPCs). To determine the efficacy of exemplified compounds in a disease-relevant stem cell population, we employed a highly-efficient CRISPR-Cas9 ribonucleoprotein transduction strategy to disrupt the PARN gene in primary human CD34+ hematopoietic stem and progenitor cells (HSPCs), or the control locus AAVS1. FIGS. 40A and 40B show extended TERC forms in CRISPR-Cas9 engineered HSPCs deficient in PARN.

[6] = 10 μM test compound (Table 2a), read-out: ΔTm at 10 μM
[7] = 10 μM test compound, shift vs DMSO control, read-out: ΔTm (Table 2, starred: the compound was tested at 10 μM)

T1 sequence (Q8NDF8 68-698 isoform Q8NDF8-5 limits assumed): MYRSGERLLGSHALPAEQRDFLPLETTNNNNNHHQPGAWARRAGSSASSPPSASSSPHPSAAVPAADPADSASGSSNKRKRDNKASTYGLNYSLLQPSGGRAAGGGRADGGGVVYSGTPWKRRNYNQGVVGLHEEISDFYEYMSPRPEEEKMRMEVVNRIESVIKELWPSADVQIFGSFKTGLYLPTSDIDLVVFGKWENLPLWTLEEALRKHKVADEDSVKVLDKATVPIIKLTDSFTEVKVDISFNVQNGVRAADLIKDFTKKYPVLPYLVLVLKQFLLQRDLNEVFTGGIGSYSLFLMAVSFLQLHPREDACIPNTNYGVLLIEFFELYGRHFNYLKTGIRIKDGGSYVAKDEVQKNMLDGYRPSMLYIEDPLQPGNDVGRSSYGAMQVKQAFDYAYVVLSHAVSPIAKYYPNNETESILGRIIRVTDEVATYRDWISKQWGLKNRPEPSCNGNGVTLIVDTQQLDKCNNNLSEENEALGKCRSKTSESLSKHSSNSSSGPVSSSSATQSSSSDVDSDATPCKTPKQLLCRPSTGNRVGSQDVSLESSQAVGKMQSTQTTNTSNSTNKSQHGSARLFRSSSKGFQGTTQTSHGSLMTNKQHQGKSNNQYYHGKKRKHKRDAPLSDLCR

SMILES	minimal effective concentration [1] [µM]	IC50 [2] [nM]	ΔTm at 1 µM [3] [°C]	ΔTm at 10 µM [3, 6] [°C]	ΔTm at 100 µM ([3]; shift vs DMSO control) [°C]	minimal effective concentration [4] [µM]	ΔTm at 10 µM [3, 7] [°C]	TERC 3′ end processing by RACE at 100 nM [5]	TERC 3′ end processing by RACE at 1 μM [5]	concentration showing maturation of TERC 3′ end processing by RACE ([1]; DC patient iPSCs) [nM]	concentration at which telomere elongation was observed [4] [nM]	activity in DC patient iPSCs (TERC maturation) relative to cmpd. 1 ([1]; DC patient iPSCs, higher / more potent than cmpd. 1)
COc1cc(Cl)cc2c(Nc3ccc(Cl)cc3C(=O)O)c(S(=O)(=O)N3CCSCC3)cnc12 [Compound 418A, 5-chloro-2-[(6-chloro-8-methoxy-3-thiomorpholinosulfonyl-4-quinolyl)amino]benzoic acid]	< 0.001	112	> 5	> 5	> 5	< 0.001	–	–	–	–	–	–
O=C(O)c1cc(Cl)ccc1Nc1c(N2CCC(Cl)CC2)cnc2ccc(Cl)cc12 [Compound 393A, 5-chloro-2-((6-chloro-3-(4-chloropiperidin-1-yl)quinolin-4-yl)amino)benzoic acid]	< 0.001	282	> 5	> 5	–	< 0.001	> 5	maturation of TERC 3′ end processing	–	–	–	–
O=C(O)c1cc(Cl)ccc1Nc1c(CN2CCSCC2)cnc2ccc(Cl)cc12 [Compound 428A, 5-chloro-2-[[6-chloro-3-(thiomorpholinomethyl)-4-quinolyl]amino]benzoic acid]	< 0.001	22	> 5	> 5	> 5	< 0.001	–	–	maturation of TERC 3′ end processing	–	–	–
O=C1CCC(c2cnc3ccc(Cl)cc3c2Nc2ccc(Cl)cc2C(=O)O)CC1 [Compound 404A, 5-chloro-2-[[6-chloro-3-(4-oxocyclohexyl)-4-quinolyl]amino]benzoic acid]	< 0.001	35	> 5	> 5	–	< 0.001	> 5	maturation of TERC 3′ end processing	–	–	–	–
O=C(O)c1cc(Cl)ccc1Nc1c(C2CCC(F)(F)CC2)cnc2ccc(Cl)cc12 [Compound 343A, 5-chloro-2-[[6-chloro-3-(4,4-difluorocyclohexyl)-4-quinolyl]amino]benzoic acid]	< 0.001	86	> 5	> 5	–	< 0.001	> 5	–	–	–	–	–
O=C(O)c1cc(Cl)ccc1Nc1c(C2CCC(=NO)CC2)cnc2ccc(Cl)cc12 (stereo not shown) [Compound 396A, 5-chloro-2-[[6-chloro-3-(4-hydroxyiminocyclohexyl)-4-quinolyl]amino]benzoic acid]	< 0.001	–	< 1	> 5	> 5	< 0.001	–	maturation of TERC 3′ end processing	maturation of TERC 3′ end processing	–	–	–
O=C(O)c1cc(Cl)ccc1Nc1c(C2=CCSCC2)cnc2ccc(Cl)cc12 [Compound 342A, 5-chloro-2-[[6-chloro-3-(3,6-dihydro-2H-thiopyran-4-yl)-4-quinolyl]amino]benzoic acid]	< 0.001	821	> 5	> 5	–	< 0.001	> 5	–	–	–	–	–
Cl.O=C(O)c1cc(Cl)ccc1Nc1c(-c2ncco2)cnc2ccc(Cl)cc12 [Compound 295A, 5-chloro-2-[(6-chloro-3-oxazol-2-yl-4-quinolyl)amino]benzoic acid]	–	318	–	–	> 5	–	–	–	–	1	1	–
O=C(O)c1cc(Cl)ccc1Nc1c(S(=O)(=O)N2CCSCC2)cnc2c(Cl)cc(Cl)cc12 [Compound 420A, 5-chloro-2-[(6,8-dichloro-3-thiomorpholinosulfonyl-4-quinolyl)amino]benzoic acid]	< 0.001	100	> 5	> 5	–	< 0.001	> 5	–	maturation of TERC 3′ end processing	–	–	–
O=C(O)c1cc(Cl)ccc1Nc1c(S(=O)(=O)N2CCSCC2)cnc2ccc(Cl)cc12 [Compound 349A, 5-chloro-2-[(6-chloro-3-thiomorpholinosulfonyl-4-quinolyl)amino]benzoic acid]	0.001 to 1	160	> 5	> 5	> 5	< 0.001	–	–	–	–	–	–
O=C(O)c1cc(Cl)ccc1Nc1c(-c2cnco2)cnc2ccc(Cl)cc12 [Compound 353A, 5-chloro-2-[(6-chloro-3-oxazol-5-yl-4-quinolyl)amino]benzoic acid]	0.001 to 1	438	1 to 5	> 5	> 5	< 0.001	–	–	–	–	–	–
CN1CCN(c2cnc3ccc(Cl)cc3c2Nc2ccc(Cl)cc2C(=O)O)CC1 [Compound 361A, 5-chloro-2-[[6-chloro-3-(4-methylpiperazin-1-yl)-4-quinolyl]amino]benzoic acid]	0.001 to 1	311	> 5	> 5	> 5	< 0.001	–	–	–	–	–	–
O=C(O)c1cc(Cl)ccc1Nc1c(S(=O)(=O)N2CCOCC2)cnc2ccc(Cl)cc12 [Compound 266A, 5-chloro-2-[(6-chloro-3-morpholinosulfonyl-4-quinolyl)amino]benzoic acid]	–	102	–	–	> 5	–	–	–	–	–	10	1-2 logs
O=C(O)c1cc(Cl)ccc1Nc1c(S(=O)(=O)N2CCSCC2)cnc2c(F)cc(Cl)cc12 [Compound 421A, 5-chloro-2-[(6-chloro-8-fluoro-3-thiomorpholinosulfonyl-4-quinolyl)amino]benzoic acid]	< 0.001	–	> 5	> 5	> 5	< 0.001	–	–	maturation of TERC 3′ end processing	–	–	–
O=C(O)c1cc(Cl)ccc1Nc1c(-c2ccncc2)cnc2ccc(Cl)cc12 [Compound 391A, 5-chloro-2-[[6-chloro-3-(4-pyridyl)-4-quinolyl]amino]benzoic acid]	0.001 to 1	735	1 to 5	> 5	> 5	< 0.001	–	–	–	–	–	–
O=C(O)c1cc(Cl)ccc1Nc1c(S(=O)(=O)N2CCC(F)(F)CC2)cnc2ccc(Cl)cc12 [Compound 345A, 5-chloro-2-[[6-chloro-3-[(4,4-difluoro-1-piperidyl)sulfonyl]-4-quinolyl]amino]benzoic acid]	0.001 to 1	523	> 5	> 5	> 5	< 0.001	–	–	–	–	–	–
